Data taken from the NIST ThermoML archive (doi:10.1007/s10765-005-5567-5).

Assay: mn = molality of the nth substance listed, in mol/kg
Details: Liquid; for thermal conductivity: Coaxial cylinder method; for viscosity: Capillary tube (Ostwald / Ubbelohde) method

O=S(=O)([O-])[O-].[K+].[K+] [potassium sulfate] + O
Details | thermal conductivity [W/m/K] | viscosity [mPa·s]
298 K, 100 kPa, m1 = 0.499 | 0.602 | –
298 K, 10000 kPa, m1 = 0.499 | 0.607 | –
298 K, 30000 kPa, m1 = 0.499 | 0.616 | –
298.15 K, 0.1 kPa, m1 = 0.0658 | – | 0.9039
298.15 K, 0.1 kPa, m1 = 0.2055 | – | 0.931
298.15 K, 0.1 kPa, m1 = 0.305 | – | 0.9616
298.15 K, 0.1 kPa, m1 = 0.407 | – | 0.9825
298.15 K, 10 kPa, m1 = 0.0658 | – | 0.9023
298.15 K, 10 kPa, m1 = 0.2055 | – | 0.9297
298.15 K, 10 kPa, m1 = 0.305 | – | 0.9618
298.15 K, 10 kPa, m1 = 0.407 | – | 0.9823
298.15 K, 20 kPa, m1 = 0.0658 | – | 0.904
298.15 K, 20 kPa, m1 = 0.2055 | – | 0.931
298.15 K, 20 kPa, m1 = 0.305 | – | 0.9615
298.15 K, 20 kPa, m1 = 0.407 | – | 0.9826
298.15 K, 30 kPa, m1 = 0.0658 | – | 0.9053
298.15 K, 30 kPa, m1 = 0.2055 | – | 0.9319
298.15 K, 30 kPa, m1 = 0.305 | – | 0.964
298.15 K, 30 kPa, m1 = 0.407 | – | 0.983
298.4 K, 100 kPa, m1 = 0.239 | 0.605 | –
298.4 K, 10000 kPa, m1 = 0.239 | 0.61 | –
298.4 K, 30000 kPa, m1 = 0.239 | 0.62 | –
311.65 K, 0.1 kPa, m1 = 0.2055 | – | 0.7107
311.65 K, 10 kPa, m1 = 0.2055 | – | 0.7122
311.65 K, 20 kPa, m1 = 0.2055 | – | 0.7133
311.65 K, 30 kPa, m1 = 0.2055 | – | 0.7151
312.25 K, 0.1 kPa, m1 = 0.407 | – | 0.7386
312.25 K, 10 kPa, m1 = 0.407 | – | 0.7414
312.25 K, 20 kPa, m1 = 0.407 | – | 0.7439
312.25 K, 30 kPa, m1 = 0.407 | – | 0.7452
312.55 K, 0.1 kPa, m1 = 0.305 | – | 0.7172
312.55 K, 10 kPa, m1 = 0.305 | – | 0.7194
312.55 K, 20 kPa, m1 = 0.305 | – | 0.7207
312.55 K, 30 kPa, m1 = 0.305 | – | 0.7227
313 K, 100 kPa, m1 = 0.239 | 0.626 | –
313 K, 10000 kPa, m1 = 0.239 | 0.631 | –
313 K, 30000 kPa, m1 = 0.239 | 0.641 | –
313.1 K, 100 kPa, m1 = 0.782 | 0.618 | –
313.1 K, 10000 kPa, m1 = 0.782 | 0.623 | –
313.1 K, 30000 kPa, m1 = 0.782 | 0.632 | –
313.55 K, 0.1 kPa, m1 = 0.0658 | – | 0.6609
313.55 K, 10 kPa, m1 = 0.0658 | – | 0.6613
313.55 K, 20 kPa, m1 = 0.0658 | – | 0.665
313.55 K, 30 kPa, m1 = 0.0658 | – | 0.667
313.6 K, 100 kPa, m1 = 0.499 | 0.622 | –
313.6 K, 10000 kPa, m1 = 0.499 | 0.627 | –
313.6 K, 30000 kPa, m1 = 0.499 | 0.637 | –
323.15 K, 0.1 kPa, m1 = 0.2055 | – | 0.5819
323.15 K, 0.1 kPa, m1 = 0.305 | – | 0.5972
323.15 K, 10 kPa, m1 = 0.2055 | – | 0.5837
323.15 K, 10 kPa, m1 = 0.305 | – | 0.5991
323.15 K, 20 kPa, m1 = 0.2055 | – | 0.5858
323.15 K, 20 kPa, m1 = 0.305 | – | 0.6019
323.15 K, 30 kPa, m1 = 0.2055 | – | 0.5885
323.15 K, 30 kPa, m1 = 0.305 | – | 0.6045
323.25 K, 0.1 kPa, m1 = 0.0658 | – | 0.5568
323.25 K, 10 kPa, m1 = 0.0658 | – | 0.5586
323.25 K, 20 kPa, m1 = 0.0658 | – | 0.5601
323.25 K, 30 kPa, m1 = 0.0658 | – | 0.5617
323.35 K, 0.1 kPa, m1 = 0.407 | – | 0.6109
323.35 K, 10 kPa, m1 = 0.407 | – | 0.613
323.35 K, 20 kPa, m1 = 0.407 | – | 0.6159
323.35 K, 30 kPa, m1 = 0.407 | – | 0.618
333.3 K, 100 kPa, m1 = 0.782 | 0.64 | –
333.3 K, 10000 kPa, m1 = 0.782 | 0.645 | –
333.3 K, 30000 kPa, m1 = 0.782 | 0.655 | –
333.6 K, 100 kPa, m1 = 0.239 | 0.649 | –
333.6 K, 10000 kPa, m1 = 0.239 | 0.654 | –
333.6 K, 30000 kPa, m1 = 0.239 | 0.664 | –
333.7 K, 100 kPa, m1 = 0.499 | 0.645 | –
333.7 K, 10000 kPa, m1 = 0.499 | 0.65 | –
333.7 K, 30000 kPa, m1 = 0.499 | 0.66 | –
348.15 K, 0.1 kPa, m1 = 0.407 | – | 0.4271
348.15 K, 10 kPa, m1 = 0.407 | – | 0.4316
348.15 K, 20 kPa, m1 = 0.407 | – | 0.4354
348.15 K, 30 kPa, m1 = 0.407 | – | 0.438
348.25 K, 0.1 kPa, m1 = 0.305 | – | 0.4147
348.25 K, 10 kPa, m1 = 0.305 | – | 0.4182
348.25 K, 20 kPa, m1 = 0.305 | – | 0.4217
348.25 K, 30 kPa, m1 = 0.305 | – | 0.4248
348.45 K, 0.1 kPa, m1 = 0.0658 | – | 0.3842
348.45 K, 10 kPa, m1 = 0.0658 | – | 0.3869
348.45 K, 20 kPa, m1 = 0.0658 | – | 0.3912
348.45 K, 30 kPa, m1 = 0.0658 | – | 0.3963
348.95 K, 0.1 kPa, m1 = 0.2055 | – | 0.3988
348.95 K, 10 kPa, m1 = 0.2055 | – | 0.402
348.95 K, 20 kPa, m1 = 0.2055 | – | 0.4048
348.95 K, 30 kPa, m1 = 0.2055 | – | 0.4076
352.9 K, 100 kPa, m1 = 0.499 | 0.66 | –
352.9 K, 100 kPa, m1 = 0.782 | 0.654 | –
352.9 K, 10000 kPa, m1 = 0.499 | 0.665 | –
352.9 K, 10000 kPa, m1 = 0.782 | 0.659 | –
352.9 K, 30000 kPa, m1 = 0.499 | 0.675 | –
352.9 K, 30000 kPa, m1 = 0.782 | 0.67 | –
353.3 K, 100 kPa, m1 = 0.239 | 0.665 | –
353.3 K, 10000 kPa, m1 = 0.239 | 0.67 | –
353.3 K, 30000 kPa, m1 = 0.239 | 0.679 | –
363 K, 100 kPa, m1 = 0.499 | 0.666 | –
363 K, 10000 kPa, m1 = 0.499 | 0.671 | –
363 K, 30000 kPa, m1 = 0.499 | 0.68 | –
363.4 K, 100 kPa, m1 = 0.239 | 0.67 | –
363.4 K, 100 kPa, m1 = 0.782 | 0.66 | –
363.4 K, 10000 kPa, m1 = 0.239 | 0.675 | –
363.4 K, 10000 kPa, m1 = 0.782 | 0.665 | –
363.4 K, 30000 kPa, m1 = 0.239 | 0.685 | –
363.4 K, 30000 kPa, m1 = 0.782 | 0.675 | –
365.45 K, 10 kPa, m1 = 0.2055 | – | 0.3303
365.45 K, 20 kPa, m1 = 0.2055 | – | 0.3339
365.45 K, 30 kPa, m1 = 0.2055 | – | 0.3363
365.95 K, 10 kPa, m1 = 0.305 | – | 0.3396
365.95 K, 20 kPa, m1 = 0.305 | – | 0.3421
365.95 K, 30 kPa, m1 = 0.305 | – | 0.346
372.55 K, 10 kPa, m1 = 0.407 | – | 0.3265
372.55 K, 20 kPa, m1 = 0.407 | – | 0.33
372.55 K, 30 kPa, m1 = 0.407 | – | 0.3329
376.65 K, 10 kPa, m1 = 0.0658 | – | 0.2805
376.65 K, 20 kPa, m1 = 0.0658 | – | 0.2846
376.65 K, 30 kPa, m1 = 0.0658 | – | 0.2884
393.1 K, 10000 kPa, m1 = 0.499 | 0.679 | –
393.1 K, 10000 kPa, m1 = 0.782 | 0.672 | –
393.1 K, 30000 kPa, m1 = 0.499 | 0.69 | –
393.1 K, 30000 kPa, m1 = 0.782 | 0.685 | –
393.5 K, 10000 kPa, m1 = 0.239 | 0.684 | –
393.5 K, 30000 kPa, m1 = 0.239 | 0.695 | –
396.35 K, 10 kPa, m1 = 0.407 | – | 0.2605
396.35 K, 20 kPa, m1 = 0.407 | – | 0.2628
396.35 K, 30 kPa, m1 = 0.407 | – | 0.2667
396.65 K, 10 kPa, m1 = 0.2055 | – | 0.2435
396.65 K, 20 kPa, m1 = 0.2055 | – | 0.2464
396.65 K, 30 kPa, m1 = 0.2055 | – | 0.2492
397.25 K, 10 kPa, m1 = 0.305 | – | 0.2503
